The test system of this test is insulinase. The test is described as follows: insulinase inhibitory activity (method of Duckworth et al.). It counts as biochemical. The settings on record: peaks from CM-Sepharose fractionation of commercial bacitracin. As to the method: The desired fraction is believed to have a molecular weight of about 1400, approximately the same as bacitracin A or F. Their anti-insulinase and antibacterial activities can be assayed in conventional manner. For example, the insulinase inhibitory activity was measured according to the method of Duckworth, et al., Proc. Nat. Acad. Sci., 69, 3698-3702 (1972) and the anti-bacterial activity by the method of Patrick, et al., Antibiotics and Chemotherapy, 1, 133-137 (1951).
A 350 ml bed volume of CM-Sepharose in a packed column (2.8×56 cm) was equilibrated with 0.05M ammonium acetate, pH 4.5 One gram of commercial bacitracin dissolved in 50 ml of buffer was applied to the packed column. The material was eluted with […] of equilibrating buffer followed by 350 ml of 1M ammonium acetate pH 4.5 buffer. Five ml fractions were collected and absorbance measurements at 252, 280 and 290 nm were made. In addition, insulinase inhibitory activity measurements were made on each peak. […] The peaks were collected, lyophilized, weighed and dissolved in water at 5 mg/ml concentration for specific activity measurements. The material collected with the second buffer contained 5-10 % of the total weight of the applied material and 90 % of the total insulinase inhibitory capacity. The specific activity of this material was 10-12 times that of the starting commercial material.

As to bacitracin A, the insulinase inhibitory activity result is on record as “negligible”. For the same substance, the insulinase inhibitory activity result (listed as bacitracin A) is on record as “substantially no”.

As to bacitracin F, the insulinase inhibitory activity result is given as “negligible”. Further, the insulinase inhibitory activity result (listed as bacitracin F) is given as “substantially no”.

The values are drawn from patent US5070074A, “Hypoglycemic and growth-promoting polypeptides isolated from bacitracin” (Protor Co., priority 1990, dated 1991).
